From patent US9409952B2, “Peptide-compound cyclization method” (Chugai Seiyaku Kabushiki Kaisha, priority 2011, dated 2016)
Like-named read-outs stand apart in the source and are kept apart here. Starred links: 1 amine or outer side, 2 acyl side, 3 side chain; linkers in the order of their positions; H or OH if unused. Positions of bridges follow the written chain, without caps; N, C: chain ends. Non-standard residues stand in square brackets, D forms with d. Residues, ends and D or L forms follow the SMILES beside them. *: point of attachment. Ala(1H-tetrazol-5-yl) = N[C@@H](Cc1nnn[nH]1)C(=O)O; Met(O2) = CS(=O)(=O)CC[C@H](N)C(=O)O; NMeF = CN[C@@H](Cc1ccccc1)C(=O)O; NMeGABA = CN(CCCC(=O)[*:2])[*:1]; NMeI = CC[C@H](C)[C@H](NC)C(=O)O; NMeβAla = CN(CCC(=O)[*:2])[*:1]; NMeL = CN[C@@H](CC(C)C)C(=O)O; Phg = N[C@H](C(=O)O)c1ccccc1; NMeV = CN[C@H](C(=O)O)C(C)C; NMeA = CN[C@@H](C)C(=O)O; Piperidide = C1CCN(*)CC1; dNMeA = CN[C@H](C)C(=O)O; β3hA = C[C@H](N)CC(=O)O; Sar = CNCC(=O)O; tBu = CC(C)(C)*

Assays:
[1] = PAMPA (parallel artificial membrane permeability assay); assay type: in vitro ADME; details: PAMPA
Outline: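 Artificial membrane was 10% (w/v) egg lecithin plus 0.5% (w/v) cholesterol in dodecane on a PVDF filter. A 10 mM DMSO stock was added at 0.5% (v/v) to donor buffer (50 mM MOPSO, pH 6.5, 5.0% glycocholic acid). After 18 h at 37 °C, LC/MS or LC/UV gave donor and acceptor levels for Pe.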

[2] = Metabolic stability in human hepatic microsome; assay type: in vitro ADME; details: microsomes
[3] = membrane permeation rate (Pe), 50 mM MOPSO buffer pH 6.5 with 5.0% glycocholic acid, 37° C., 18 hours, read-out: iPAMPA Pe
[4] = pH 7.4, human hepatic microsome, NADPH(+), read-out: CL NADPH(+)

SMILES | Papp at 18 hours, 50 µM [1, 3] | microsomal CLint at 1 uM [2, 4] | Papp at 18 hours, 50 µM ([1]; pH 6.5) | microsomal CLint at 1 uM ([2]; human, pH 7.4, CL NADPH(+))
CC[C@H](C)[C@@H]1NC(=O)[C@H](CC(C)C)N(C)C(=O)[C@H](C)NC(=O)CN(C)C(=O)[C@H](CC(C)C)NC(=O)[C@H]([C@@H](C)O)NC(=O)[C@H](CC(C)C)N(C)C(=O)CCN(C)C(=O)C[C@H](C)NC(=O)[C@H](CC(C)C)N(C)C(=O)[C@H](CC(C)C)N(C)C1=O [DP-806] (cyclo(A[NMeL]I[NMeL][NMeL][β3hA][NMeβAla][NMeL]TL[Sar])) | 27 ×10⁻⁶ cm/s | 88 µL/min/mg | – | –
CC(C)C[C@@H]1NC(=O)[C@@H](C)N(C)C(=O)C[C@@H](C(=O)N2CCCCC2)NC(=O)[C@H]([C@@H](C)O)NC(=O)[C@H](CC(C)C)N(C)C(=O)[C@H](CC(C)C)N(C)C(=O)[C@H](Cc2ccccc2)NC(=O)[C@H](CC(C)C)N(C)C(=O)[C@H](Cc2ccccc2)N(C)C1=O [DP-343] ([dNMeA]L[NMeF][NMeL]F[NMeL][NMeL]TD-Piperidide; lactam N-9) | 36 ×10⁻⁶ cm/s | 427 µL/min/mg | – | –
CC(C)C[C@H]1C(=O)N[C@@H]([C@@H](C)O)C(=O)N(C)[C@@H](CC(C)C)C(=O)N(C)CC(=O)N(C)[C@@H](Cc2ccccc2)C(=O)N[C@@H](COC(C)(C)C)C(=O)N[C@H](C(=O)N2CCCCC2)CC(=O)N1C [DP-717] ([NMeL]T[NMeL][Sar][NMeF]S(tBu)D-Piperidide; lactam N-7) | 21 ×10⁻⁶ cm/s | 101 µL/min/mg | – | –
CC[C@H](C)[C@@H]1NC(=O)[C@H](CC(C)C)N(C)C(=O)CN(C)C(=O)[C@H]([C@@H](C)O)NC(=O)[C@@H](C)N(C)C(=O)C[C@@H](C(=O)N2CCCCC2)NC(=O)[C@H](CC(C)C)N(C)C(=O)[C@H](Cc2ccccc2)N(C)C(=O)[C@H](CC(C)C)N(C)C1=O [DP-512] ([dNMeA]T[Sar][NMeL]I[NMeL][NMeF][NMeL]D-Piperidide; lactam N-9) | 18 ×10⁻⁶ cm/s | 62 µL/min/mg | – | –
CC[C@H](C)[C@H]1C(=O)N(C)[C@@H](C)C(=O)N[C@H](C(=O)N2CCCCC2)CC(=O)N(C)CC(=O)N[C@@H](COC(C)(C)C)C(=O)N(C)CC(=O)N(C)[C@@H](CC(C)C)C(=O)N[C@@H]([C@@H](C)O)C(=O)N(C)[C@@H](Cc2ccccc2)C(=O)N(C)[C@@H](CC(C)C)C(=O)N1C [DP-76] ([Sar]S(tBu)[Sar][NMeL]T[NMeF][NMeL][NMeI][NMeA]D-Piperidide; lactam N-10) | – | – | 16 ×10⁻⁶ cm/s | 27 µL/min/mg
CC(C)C[C@@H]1NC(=O)[C@H](CC(C)C)NC(=O)[C@H](C)N(C)C(=O)C[C@@H](C(=O)N2CCCCC2)NC(=O)[C@H](C(C)C)N(C)C(=O)[C@H](CC(C)C)NC(=O)[C@H](Cc2ccccc2)NC(=O)[C@H]([C@@H](C)O)NC(=O)CN(C)C(=O)[C@H](CC(C)C)NC(=O)[C@H](c2ccccc2)NC1=O [DP-561] ([NMeA]LL[Phg]L[Sar]TFL[NMeV]D-Piperidide; lactam N-11) | 24 ×10⁻⁶ cm/s | 48 µL/min/mg | – | –
CC(C)C[C@H]1C(=O)NCC(=O)N[C@H](C(=O)N2CCCCC2)CC(=O)N(C)CCC(=O)N[C@@H]([C@@H](C)O)C(=O)N(C)[C@@H](C)C(=O)N[C@@H](COC(C)(C)C)C(=O)N(C)[C@@H](Cc2ccccc2)C(=O)N1C [DP-522] ([NMeβAla]T[NMeA]S(tBu)[NMeF][NMeL]GD-Piperidide; lactam N-8) | 5.3 ×10⁻⁶ cm/s | 87 µL/min/mg | – | –
CC[C@H](C)[C@@H]1NC(=O)[C@@H]2CCCN2C(=O)[C@H](CC(C)C)N(C)C(=O)[C@H](Cc2ccccc2)NC(=O)CCCN(C)C(=O)C[C@@H](C(=O)N(C)[C@@H](Cc2ccccc2)C(=O)N[C@@H](C)C(=O)N2CCCCC2)NC(=O)[C@H]([C@@H](C)O)NC(=O)[C@H](CC(C)C)NC(=O)[C@H](Cc2ccccc2)N(C)C(=O)CNC(=O)[C@H](CC(C)C)N(C)C1=O [DP-364] ([NMeGABA]F[NMeL]PI[NMeL]G[NMeF]LTD[NMeF]A-Piperidide; lactam N-11) | 28 ×10⁻⁶ cm/s | 75 µL/min/mg | – | –
CC(C)C[C@H]1C(=O)N[C@@H](COC(C)(C)C)C(=O)N(C)[C@@H](Cc2ccccc2)C(=O)N(C)[C@@H](CC(C)C)C(=O)N[C@H](C(=O)N2CCCCC2)CC(=O)N(C)CC(=O)N[C@@H]([C@@H](C)O)C(=O)N1C [DP-743] ([Sar]T[NMeL]S(tBu)[NMeF][NMeL]D-Piperidide; lactam N-7) | 16 ×10⁻⁶ cm/s | 126 µL/min/mg | – | –
CC[C@H](C)[C@H]1C(=O)N[C@@H](Cc2ccccc2)C(=O)N[C@H](C(=O)N2CCCCC2)CC(=O)N[C@H](C)C(=O)N[C@@H](C)C(=O)N(C)[C@@H](CC(C)C)C(=O)N(C)[C@@H](CC(C)C)C(=O)N(C)[C@@H](Cc2ccccc2)C(=O)N[C@@H]([C@@H](C)O)C(=O)N(C)[C@@H](C)C(=O)N(C)[C@@H](C(C)C)C(=O)N1C [DP-229] ([dA]A[NMeL][NMeL][NMeF]T[NMeA][NMeV][NMeI]FD-Piperidide; lactam N-11) | 33 ×10⁻⁶ cm/s | 100 µL/min/mg | – | –
C=C1CCC(=O)N(C)[C@@H](Cc2ccccc2)C(=O)N(C)[C@@H](CC(C)C)C(=O)N[C@@H]([C@@H](C)CC)C(=O)N(C)[C@@H](C)C(=O)N(C)[C@@H](Cc2ccccc2)C(=O)N[C@@H]([C@@H](C)O)C(=O)N(C)[C@@H](C)C(=O)N(C)[C@@H](CC(C)C)C(=O)N[C@H](C(=O)N2CCCCC2)Cc2cccc1c2 [DP-834] | – | – | 14 ×10⁻⁶ cm/s | 501 µL/min/mg
CC(C)C[C@H]1C(=O)N(C)[C@@H](CC(C)C)C(=O)N[C@H](C(=O)N(C)[C@@H](Cc2ccccc2)C(=O)N[C@@H](C)C(=O)N2CCCCC2)CC(=O)N(C)[C@@H](C)C(=O)N[C@@H](C(C)C)C(=O)N(C)[C@@H](Cc2ccccc2)C(=O)N(C)CC(=O)N[C@@H]([C@@H](C)O)C(=O)N(C)[C@@H](C)C(=O)N1C [DP-310] ([NMeA]V[NMeF][Sar]T[NMeA][NMeL][NMeL]D[NMeF]A-Piperidide; lactam N-9) | – | – | 35 ×10⁻⁶ cm/s | 143 µL/min/mg
CC(C)C[C@H]1NC(=O)[C@H](Cc2ccccc2)N(C)C(=O)[C@H](CC(C)C)N(C)C(=O)[C@H](C)NC(=O)[C@H](CC(C)C)N(C)C(=O)[C@H](Cc2ccccc2)N(C)C(=O)[C@H](Cc2nn[nH]n2)NC(=O)C[C@@H](C(=O)N2CCCCC2)NC(=O)[C@H](CC(C)C)N(C)C(=O)[C@H](CC(C)C)N(C)C1=O [DP-909] ([Ala(1H-tetrazol-5-yl)][NMeF][NMeL]A[NMeL][NMeF][dL][NMeL][NMeL]D-Piperidide; lactam N-10) | 12 ×10⁻⁶ cm/s | 15 µL/min/mg | – | –
CC(C)C[C@H]1C(=O)N[C@@H](C)C(=O)N(C)[C@@H](Cc2ccccc2)C(=O)N(C)[C@@H](C)C(=O)N(C)[C@@H](Cc2ccccc2)C(=O)N[C@H](C(=O)N(C)[C@@H](Cc2ccccc2)C(=O)N[C@@H](C)C(=O)N2CCCCC2)CC(=O)N(C)[C@H](C)C(=O)N(C)[C@@H](C)C(=O)N(C)[C@@H](CC(C)C)C(=O)N[C@@H]([C@@H](C)O)C(=O)N(C)[C@@H](C)C(=O)N1C [DP-347] ([dNMeA][NMeA][NMeL]T[NMeA][NMeL]A[NMeF][NMeA][NMeF]D[NMeF]A-Piperidide; lactam N-11) | 25 ×10⁻⁶ cm/s | 40 µL/min/mg | – | –
CC(C)C[C@@H]1NC(=O)[C@H](CC(C)C)N(C)C(=O)[C@H](C)N(C)C(=O)[C@@H](C(C)C)NC(=O)C[C@@H](C(=O)N2CCCCC2)NC(=O)[C@H](CCS(C)(=O)=O)NC(=O)[C@H](CC(C)C)N(C)C(=O)[C@H](C)N(C)C(=O)[C@H](CC(C)C)N(C)C(=O)[C@H](Cc2ccccc2)NC(=O)[C@H](Cc2ccccc2)N(C)C1=O [DP-620] ([dV][NMeA][NMeL]L[NMeF]F[NMeL][NMeA][NMeL][Met(O2)]D-Piperidide; lactam N-11) | 24 ×10⁻⁶ cm/s | 26 µL/min/mg | – | –
CC(C)C[C@@H]1NC(=O)[C@H]([C@@H](C)O)NC(=O)[C@H](CC(C)C)N(C)C(=O)[C@H](Cc2ccccc2)N(C)C(=O)[C@H](CC(C)C)N(C)C(=O)C[C@@H](C(=O)N2CCCCC2)NC(=O)[C@H](CC(C)C)N(C)C1=O [DP-722] ([NMeL][NMeF][NMeL]TL[NMeL]D-Piperidide; lactam N-7) | 45 ×10⁻⁶ cm/s | 311 µL/min/mg | – | –
CC(C)C[C@H]1C(=O)N(C)[C@@H](C)C(=O)N[C@@H]([C@@H](C)O)C(=O)N(C)[C@@H](C)C(=O)N(C)[C@@H](CC(C)C)C(=O)N(C)[C@@H](Cc2ccccc2)C(=O)N[C@H](C(=O)N2CCCCC2)CC(=O)N(C)[C@H](C)C(=O)N(C)[C@@H](C)C(=O)N[C@@H](C)C(=O)N(C)[C@@H](C)C(=O)N1C [DP-476] ([dNMeA][NMeA]A[NMeA][NMeL][NMeA]T[NMeA][NMeL][NMeF]D-Piperidide; lactam N-11) | 2.8 ×10⁻⁶ cm/s | 10 µL/min/mg | – | –
CC[C@H](C)[C@H]1C(=O)N[C@@H](C)CC(=O)N(C)[C@H](C)C(=O)N(C)[C@@H](CC(C)C)C(=O)N[C@@H]([C@@H](C)O)C(=O)N(C)CC(=O)N[C@@H](COC(C)(C)C)C(=O)N(C)[C@@H](CC(C)C)C(=O)N1C [DP-826] (cyclo([NMeI][β3hA][dNMeA][NMeL]T[Sar]S(tBu)[NMeL])) | 30 ×10⁻⁶ cm/s | 213 µL/min/mg | – | –
CC(C)C[C@H]1C(=O)N(C)[C@@H](C)C(=O)N(C)[C@@H](CC(C)C)C(=O)N[C@@H]([C@@H](C)O)C(=O)N(C)[C@@H](C)C(=O)N(C)[C@@H](CC(C)C)C(=O)N[C@@H](COC(C)(C)C)C(=O)N[C@@H](C)CC(=O)N[C@H](C(C)C)C(=O)N1C [DP-802] (cyclo([NMeA][NMeL]S(tBu)[β3hA][dV][NMeL][NMeA][NMeL]T)) | 29 ×10⁻⁶ cm/s | 77 µL/min/mg | – | –
